# Results reported in US4628083A, “2-hydroxy-5-(arylazo)-benzene alkanoic acids” (Pharmacia AB, priority 1985, dated 1986).
# Several values for one entry are separate records, joined by “and”; a condition that tells them apart may be missing. Identical values can stand only once.
# Legend:
# Format in all cases: biochemical
# [1] = biological target: T1, prostaglandin-15-dehydrogenase (Homo sapiens, UniProt P15428); experiment: Inhibition of prostaglandin F2α inactivation in cell-free human placenta preparation; details: for IC50: Inhibition 50 %, read-out: concentration giving 50% inhibition of the prostaglandin inactivation (converted)
# T1 construct: cellfree preparations of different organs (containing prostaglandin-15-dehydrogenase); from tissue; host or cells: human placenta
# T1 sequence (P15428 1-266): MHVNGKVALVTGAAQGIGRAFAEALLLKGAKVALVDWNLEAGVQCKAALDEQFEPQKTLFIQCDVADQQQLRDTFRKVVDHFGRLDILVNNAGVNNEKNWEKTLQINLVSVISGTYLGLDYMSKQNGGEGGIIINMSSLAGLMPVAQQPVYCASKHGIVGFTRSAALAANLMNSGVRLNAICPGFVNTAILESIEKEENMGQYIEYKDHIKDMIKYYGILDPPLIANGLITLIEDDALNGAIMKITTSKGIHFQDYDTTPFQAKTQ
# Method: (§1) Radioactive prostaglandin F2α was incubated with cellfree preparations of different organs (containing prostaglandin-15-dehydrogenase) according to Hoult and Moore, British Journal of Pharmacology, Vol. 61 (1977), p. 615. After a suitable time the prostaglandins were extracted and separated by chromatography. Then the amount of remaining prostaglandin F2α was compared with the amounts of metabolites. The inhibiting effect was obtained by the addition of the compounds according to the invention during the incubation and comparison with control experiments without such addition. The results may be represented either as a concentration giving 50% inhibition of the prostaglandin inactivation, or as an inhibition in percent at a certain concentration of the studied compound. In the following table the results for some compounds according to the invention are shown compared to the known drug sulfasalazine.
# [2] = biological target: T2, prostaglandin-15-dehydrogenase (Rattus norvegicus, UniProt O08699); experiment: Inhibition of prostaglandin F2α inactivation in cell-free rat organ preparations; details: for inhibition at 50 µM: 50 μM (A 19,9 μg/ml; C 12,8 μg/ml); for inhibition at 2 µM: 2 μM (0,82 μg/ml)
# T2 construct: cellfree preparations of different organs (containing prostaglandin-15-dehydrogenase); from tissue
# T2 sequence (O08699 1-266): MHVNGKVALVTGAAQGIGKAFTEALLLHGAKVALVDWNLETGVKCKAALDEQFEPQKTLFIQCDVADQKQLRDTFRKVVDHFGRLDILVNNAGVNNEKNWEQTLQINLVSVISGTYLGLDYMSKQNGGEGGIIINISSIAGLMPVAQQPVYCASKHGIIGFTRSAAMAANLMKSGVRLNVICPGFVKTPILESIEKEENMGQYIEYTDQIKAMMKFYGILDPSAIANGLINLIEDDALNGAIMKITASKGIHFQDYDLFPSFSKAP
# Method: as §1
# [3] = biological target: T3, prostaglandin-15-dehydrogenase (Cavia porcellus, UniProt P70684); experiment: Inhibition of prostaglandin F2α inactivation in cell-free guinea pig organ preparations; details: for inhibition at 2 µM: 2 μM (0,82 μg/ml); for inhibition at 50 µM: 50 μM (B 20,6 μg/ml; C 12,8 μg/ml)
# T3 construct: cellfree preparations of different organs (containing prostaglandin-15-dehydrogenase); from tissue
# T3 sequence (P70684 1-265): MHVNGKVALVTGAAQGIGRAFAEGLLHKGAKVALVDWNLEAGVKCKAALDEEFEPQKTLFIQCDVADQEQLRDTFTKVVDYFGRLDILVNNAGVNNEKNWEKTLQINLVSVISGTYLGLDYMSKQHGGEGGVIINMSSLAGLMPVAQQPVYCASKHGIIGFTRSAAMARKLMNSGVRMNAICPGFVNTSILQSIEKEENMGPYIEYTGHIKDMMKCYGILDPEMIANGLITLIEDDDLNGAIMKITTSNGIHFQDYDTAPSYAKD
# Method: as §1
# [4] = relative to compound A (sulfasalazine)
Compound,IC50 ([1]; Human placenta),inhibition at 50 µM ([2]; Rat colon),"inhibition at 50 µM ([1]; Human placenta, 50 μM (20,6 μg/ml))","times as active as the known compound A [1, 4]",inhibition at 2 µM ([2]; Rat colon),inhibition at 2 µM ([2]; Rat kidney),inhibition at 2 µM ([2]; Rat lung),inhibition at 2 µM ([2]; Rat stomach),inhibition at 2 µM ([3]; Guinea pig colon),inhibition at 2 µM ([3]; Guinea pig duodenum),inhibition at 2 µM ([3]; Guinea pig kidney),inhibition at 50 µM ([3]; Guinea pig kidney),"activity compared with compound A [2, 4]"
"O=C(O)c1cc(/N=N/c2ccc(S(=O)(=O)Nc3ccccn3)cc2)ccc1O [A, sulfasalazine, reference compound]",95 µM and 95.4 µM,47.8%,–,–,–,–,–,–,–,–,–,–,–
"O=C(O)Cc1cc(N=Nc2ccc(S(=O)(=O)Nc3ccccn3)cc2)ccc1O [B, 2-hydroxy-5-[4-[[(2-pyridinyl)amino]sulfonyl]phenylazo]benzeneacetic acid]",1.9 µM and 1.89 µM,–,87.5%,50 times,53.3%,94.1%,85.2%,67.2%,58.7%,68.3%,53.8%,65.9%,–
"O=C(O)Cc1cc(N=Nc2ccccc2)ccc1O [C, 2-hydroxy-5-phenylazo-benzeneacetic acid]",–,71.3%,–,–,–,–,–,–,–,–,–,45.4%,significantly more active than compound A
